Laboratory results: the pKa sets of Baltruschat and Czodrowski (2020)

SMILES | pKa
C/C(=C\c1cccc(C)n1)[C@@H]1C[C@@H]2O[C@]2(C)CCC[C@H](C)[C@H](O)[C@@H](C)C(=O)C(C)(C)[C@@H](O)CC(=O)O1 | 5.5
CS(=O)(=O)c1ccc(C(=O)Nc2ccc(Cl)c(-c3ccccn3)c2)c(Cl)c1 | 3.84
O=C([O-])COc1ccc(Cl)cc1C1CCCCCC1 | 3.48
CCCCC[C@H](O)CC[C@@H]1[C@H]2Cc3cccc(OCC(=O)[O-])c3C[C@H]2C[C@H]1O | 3.37
N#Cc1ncc2cc(COc3cccc(CCC(=O)[O-])c3)n(CCC3CCCCC3)c2n1 | 4.5
Cc1[nH]c2ccccc2c1CC[NH+]1CCc2cc(CCC(=O)N=O)ccc2C1 | 7.96
COc1ccc(-c2c(C)nc3c(-c4ccccn4)cnn3c2N)cc1 | 6.07
O=C([O-])c1ccccc1Nc1ccc(CCc2ccc(Cl)c(Cl)c2)cc1 | 4.39

Results, then the compound that gave them:

pKa | SMILES
7.94 | O=c1[nH]c(-c2ccc(C(F)(F)F)cc2)nc2c1CSCC2
2.92 | CC(=O)Nc1cccc2c1c(Sc1ccc(Cl)cc1)c(C)n2CC(=O)[O-]
9.43 | Cc1cc(N2CCCC2)cc(/C=C/c2cccc(C(F)(F)F)c2)[nH+]1
4.63 | Cc1ccc(-c2ncc(Cl)cc2-c2ccc(S(C)(=O)=O)cc2)cn1
4.94 | Fc1ccc2c(/C=C/c3nn[n-]n3)c[nH]c2c1
5.9 | CC(=O)Nc1cc(Cl)ccc1/C=C/C(=O)N1CC[NH+](Cc2ccc(F)cc2)C[C@H]1C
8.3 | CN(CCO)c1cc2c(=O)n(NS(C)(=O)=O)c(=O)[nH]c2cc1C(F)(F)F
8.9 | Clc1ccc(-c2ccc(-c3ccnc(N4CC[NH2+]CC4)n3)s2)cc1
3 | CCN1c2ccc(C#N)cc2N=C(c2ccc(C(=O)[O-])c(F)c2)c2cc3c(cc21)C(C)(C)CCC3(C)C
9.1 | C[NH+](C)CC1CCc2cc(NC(=O)c3ccc(-c4ccc(F)cc4)cc3)ccc2C1 (stereo not drawn)
8.2 | O=S(=O)(c1ccccc1)N(CC(F)(F)F)c1ccc(C(O)(C(F)(F)F)C(F)(F)F)cc1
9.01 | CN1C(=O)N(C[C@H](C(=O)NO)[C@@H](CC2CCCC2)C(=O)N2CCCCC2)C(=O)C1(C)C

Remark: another data set of the same source

SMILES | pKa
COc1ccccc1S(=O)(=O)Nc1ccc2c(c1)CN(C)C(=O)N2 | 8.65
O=C(/C=C/c1ccc(Br)cc1)N1CC[NH+](Cc2ccccc2)CC1 | 6.1
Cc1cc(C(=O)C[NH+]2CCCC2)c(C)n1-c1ccc(F)cc1 | 9
CCS(=O)(=O)c1ccc(CC(=O)Nc2nc(-c3ccccc3)c(C(=O)c3ccccc3)s2)cc1 | 7.9
O=C1N(Cc2c[nH]c3ccccc23)CCCC12CCN(c1cnc3ccccc3n1)CC2 | 3.9
N#Cc1ccc2[nH]cc(-c3ccnc(N)n3)c2c1 | 5.3
O=C([O-])c1ccccc1Nc1cc(F)cc(C(F)(F)F)c1 | 3.9
Fc1ccccc1C1=Cc2ccccc2C2=[NH+]CCN12 | 10.2
O=Cc1cc(Br)cc(Br)c1O | 5.3
Cc1csc2ccc3[nH]c4c(c3c12)C[NH+](C)CC4 | 8.6
CS(=O)(=O)c1ccc(-c2cnc(N)c(-c3ccc(C(F)(F)F)cc3)c2)cc1 | 4.9
N#Cc1csc(NC(=O)Nc2ccc(Cl)c(Cl)c2)n1 | 8.3
CCN(CC)c1ncnc2c1cnn2C | 4.2
Cc1nc(-c2ccc(OCC(C)C)c(C#N)c2)sc1C(=O)[O-] | 4

Second part, the compound after the results:

pKa | SMILES
4.3 | CCc1ncnc(NC(CC)c2ccc(Oc3ccc(F)cc3)cc2)c1Br (stereo not drawn)
8.7 | C1=CN2CC(c3ccccc3)[NH+]=C2S1 (stereo not drawn)
8.4 | O=C(NO)C1c2ccccc2Oc2ccccc21
3.7 | N#Cc1c(-c2ccc(Cl)cc2)nc(SCC(=O)Nc2ccc(Cl)cc2)[nH]c1=O
5.9 | O=C(NCc1ccc(Cl)cc1)c1cn2c(CCO)cc3cc(C[NH+]4CCOCC4)cc(c1=O)c32
3.9 | Nc1ccc(-c2cc3ccccc3oc2=O)cc1
5.8 | O=c1ccc2nc3ccc(O)cc3oc-2c1
3.3 | O=C(Nc1ccccc1C(=O)[O-])c1cccc(Oc2ccccc2)c1
4.8 | COC(=O)c1ccc2[nH]cc(CN3CCCC4(CCN(c5nc(C)cc(C)n5)CC4)C3=O)c2c1
